In US20040048821A1, “Enhancement of drug cytotoxicity in tumor cells containing mutant Rb gene” (Cold Spring Harbor Laboratory, priority 1997, published 2004):

How the values were obtained:
Format in all cases: cell-based, human
[1] = system: Snos2 osteosarcoma cells; test: Drug cytotoxicity (adriamycin, TNF) in Snos2 osteosarcoma cells; settings: Snos2 cells with control vector, doses tested
Procedure: (§1) A control vector, E1A or the E1A mutants (ΔN or ΔCR2) were introduced into tumor cells via retroviral mediated gene transfer and analyzed for drug cytoxicity within a few days of gene transfer. Cell populations were treated with adriamycin or tumor necrosis factor a (or both).

[2] = system: U2OS osteosarcoma cells; test: Drug cytotoxicity (adriamycin, TNF) in U2OS osteosarcoma cells; settings: U2OS cells with control vector, doses tested
Procedure: as §1

[3] = system: BT-549 breast carcinoma cells; test: Drug cytotoxicity (adriamycin) in BT-549 breast carcinoma cells; settings: BT549 cells containing a control vector
Procedure: as §1

Question: How did the “apoptosis following drug treatment” value [1] turn out when `COc1cccc2c1C(=O)c1c(O)c3c(c(O)c1C2=O)C[C@@](O)(C(=O)CO)C[C@@H]3O[C@H]1C[C@H](N)[C@H](O)[C@H](C)O1` [adriamycin] was run?
Answer: do not undergo apoptosis

Question: What about the “apoptosis / cell death following drug treatment” value [2] of the same compound?
Answer: do not undergo apoptosis

Question: What about the “apoptosis following drug treatment” value [3] of the same compound?
Answer: unable to induce apoptosis
